How the values were obtained:
[1] = system: pro-inflammatory cytokines; assay: Secreted cytokines of PBMCs following LPS stimulation (multiplex); format: cell-based, mouse
Experimental: To investigate how DHCA may attenuate IL-6 generation, we tested the effect of DHCA on Toll-like receptor-4 mediated signaling pathways. PBMCs were pretreated with DHCA and stimulated with LPS using the same protocol as during screening. Samples were taken at 0, 30 min, 60 min, 6 h and 16 h following LPS stimulation and cell lysates were subjected to a multiplex ELISA assay. […] Based on evidence that DNA methylation at a single CpG in the human IL-6 promoter region effectively alters IL-6 expression, we next tested whether DHCA can modulate IL-6 gene expression through methylation mechanisms. We treated PBMC cells with DHCA and measured the expression of enzymes essential for DNA methylation/demethylation. […] To investigate how methylation influences IL-6 gene expression, we employed the CpG-free luciferase reporter system. We cloned a ~280 bp CpG rich DNA segment from the mouse IL-6 promoter into a promoterless CpG-free reporter construct and transfected into N2a cells. We found the CpG-rich IL-6 promoter segment presented no inherent promoter activity as reflected by no differences in luciferase activity compared to the control construct (Fig. 2f). […] To test whether DHCA may influence the expression of other pro-inflammatory factors, we measured the level of secreted cytokines following LPS stimulation (Supplementary Fig. 3). […]

[2] = system: DNA-methyltransferase 1 (DNMT1); assay: Expression of DNA methylation/demethylation enzymes in PBMCs; format: cell-based, mouse
Experimental: To investigate how DHCA may attenuate IL-6 generation, we tested the effect of DHCA on Toll-like receptor-4 mediated signaling pathways. PBMCs were pretreated with DHCA and stimulated with LPS using the same protocol as during screening. Samples were taken at 0, 30 min, 60 min, 6 h and 16 h following LPS stimulation and cell lysates were subjected to a multiplex ELISA assay. […] Based on evidence that DNA methylation at a single CpG in the human IL-6 promoter region effectively alters IL-6 expression, we next tested whether DHCA can modulate IL-6 gene expression through methylation mechanisms. We treated PBMC cells with DHCA and measured the expression of enzymes essential for DNA methylation/demethylation. […] To investigate how methylation influences IL-6 gene expression, we employed the CpG-free luciferase reporter system. […] To test whether DHCA may influence the expression of other pro-inflammatory factors, we measured the level of secreted cytokines following LPS stimulation (Supplementary Fig. 3).
(§1) Total RNA from MSN-enriched cultures or brain NAc was isolated using the RNeasy Mini Kit (Qiagen, Valencia, CA, USA) and reverse transcribed. Gene expression was measured in four replicates by quantitative RT-PCR using Maxima SYBR Green master mix (Fermentas) in ABI Prism 7900HT. […]

[3] = system: 37 monoaminergic receptors and transporters; assay: Radioligand binding assay, whole panel; conditions: concentrations as high as 10 µM
Experimental: Currently available antidepressants are believed to act by modifying the activity of the brain monoaminergic system, [47]. We evaluated whether Mal-gluc and DHCA directly interact with the monoaminergic system using a radioligand binding assay.
Radioligand binding assays were performed as previously described. Briefly, crude membrane fractions prepared from a stable HEK cell line expressing recombinant receptors were mixed with a radiolabeled specific ligand and 10 µM of competitor compound (DHCA, Mal-gluc, or non-specific ligand). The percentage of radioligand binding was subsequently measured.

[4] = system: Toll-like receptor-4 mediated signaling pathways (JNK, p38, ERK, AKT); assay: Multiplex ELISA of phosphorylated signaling proteins in PBMCs after LPS; format: cell-based, mouse
Experimental: To investigate how DHCA may attenuate IL-6 generation, we tested the effect of DHCA on Toll-like receptor-4 mediated signaling pathways. PBMCs were pretreated with DHCA and stimulated with LPS using the same protocol as during screening. Samples were taken at 0, 30 min, 60 min, 6 h and 16 h following LPS stimulation and cell lysates were subjected to a multiplex ELISA assay. […] Based on evidence that DNA methylation at a single CpG in the human IL-6 promoter region effectively alters IL-6 expression, we next tested whether DHCA can modulate IL-6 gene expression through methylation mechanisms. We treated PBMC cells with DHCA and measured the expression of enzymes essential for DNA methylation/demethylation. […] To investigate how methylation influences IL-6 gene expression, we employed the CpG-free luciferase reporter system. We cloned a ~280 bp CpG rich DNA segment from the mouse IL-6 promoter into a promoterless CpG-free reporter construct and transfected into N2a cells. We found the CpG-rich IL-6 promoter segment presented no inherent promoter activity as reflected by no differences in luciferase activity compared to the control construct (Fig. 2f). […] We then cloned CpG rich DNA segments from IL-6 introns 1, 3 or 4 into the CpG-free luciferase reporter construct with a minimal EF1 promoter and no enhancer activity. […] In contrast, the CpG-rich region of IL-6 intron 4 presented no observable enhancer activity (Fig. 2g). […] To test whether DHCA may influence the expression of other pro-inflammatory factors, we measured the level of secreted cytokines following LPS stimulation (Supplementary Fig. 3).
Luminex xMAP multiplexed immunoassays were used to evaluate the levels of phosphorylated proteins in PBMCs pre-treated with DHCA for 16 h followed by LPS stimulation. PBMCs were washed once with PBS and immediately lysed with MilliplexMAP Cell Signaling Universal Lysis Buffer and applied to the assay following manufacturer’s instruction (EMD Millipore). The phosphoprotein analytes used were: AKT (Ser473), JNK (Thr183/Tyr185), ERK (Thr185/Tyr187), p38 […] (Millipore, MA). Multiplex MAP mouse cytokine/chemokine Panel (EMD Millipore) was used to measure the levels of 32 cytokines/chemokines in mouse plasma or PBMC cultures.

[5] = system: Rac1; assay: In vivo dose finding: Rac1 mRNA in the NAc; parameters: species or system mouse; conditions: 50 ng to 5 mg/kg-BW/day in drinking water, 2 weeks; strongest at 500 ng and 5 µg/kg-BW/day
Experimental: We then initiated dose response and safety studies in mice to determine testing dosages and safety of DHCA and Mal-gluc. C57BL/6 mice were treated with either DHCA (doses ranging from 50 µg to 50 mg/kg-BW/day) or Mal-gluc (doses ranging from 50 ng to 5 mg/kg-BW/day) for 2 weeks to simulate long-term administration. Mice treated with DHCA were challenged with intraperitoneal (i.p.) injection of 0.4 mg/kg-BW LPS and plasma levels of IL-6 were measured 6 h post injection. […] Following common discovery-stage practices, we measured the plasma levels of alkaline phosphatase (ALP), aspartate aminotransferase (AST), and alanine aminotransferase (ALT) for liver function and blood urea nitrogen (BUN) for renal function.
Male C57BL/6 J mice (8-week-old) were placed on a polyphenol-free AIN-93M diet and treated with various doses of DHCA (vehicle, 50 µg, 500 µg, 5 mg, and 50 mg/kg-BW/day), delivered through their drinking water for two weeks. […]
as §1

[6] = Plasma protein binding, mouse plasma; format: in vitro ADME
Experimental: Compound stability in mouse and human plasma and in mouse brain homogenate were conducted, [45]. Specifically, Mal-gluc or DHCA was incubated in duplicate with plasma at 37 °C and samples were taken at various time points and mixed with three volumes of ice-cold Stop Solution (methanol containing propranolol, diclofenac, or other internal standard). Samples were centrifuged to remove precipitated protein, and the supernatants were analyzed by LC/MS/MS to quantitate for remaining test compound. Data are converted to percentage remaining by dividing by the time zero concentration value. Data are fit to a first-order decay model to determine half-life. Plasma protein binding were conducted using both mouse and human plasma.

[7] = 30 min and 60 min following LPS, no further changes at 6 h and 16 h
[8] = PBMCs, DHCA pretreatment, 0, 30 min, 60 min, 6 h, 16 h after LPS

Row | SMILES | cytokine expression profile ([1]; PBMCs in the absence of LPS stimulation) | LPS-induced production of cytokines (GM-CSF, IL-1β, IL-12 p40 and p70, IL-17, MCP-1) ([1]; PBMCs with LPS stimulation) | expression of DNMT1 [2] | binding with any of the 37 receptors and transporters tested [3] | decrease in AKT activation [4, 7] | decrease in ERK activation [4, 7] | activation (phosphorylation) of JNK [4, 8] | activation (phosphorylation) of p38 [4, 8] | Rac1 mRNA in the NAc [5] | Plasma protein binding, Mean fraction unbound (mouse plasma) [6]
1 | O=C(O)CCc1ccc(O)c(O)c1 [DHCA, 3(3,4-dihydroxy-phenyl) propionic acid] | did not influence cytokine expression profile | significantly reduced LPS-induced production of cytokines | significantly reduced | no significant binding | ~ 10% | ~ 10% | no effect | no effect | – | –
2 | COc1cc(-c2[o+]c3cc(O)cc(O)c3cc2O[C@@H]2O[C@H](CO)[C@@H](O)[C@H](O)[C@H]2O)cc(OC)c1O [Mal-gluc] | – | – | – | – | – | – | – | – | dose-response increase of Rac1 expression | 55.70%
